We go through seven compounds from article PMC8151276, “An Integrated Approach toward NanoBRET Tracers for Analysis of GPCR Ligand Engagement” (Molecules, 2021).

Assay type in all cases: binding
Assay [1] concerns the target T1, OPRL1 (Homo sapiens, UniProt P41146).
T1 construct: purchased Promega (in-house HiBiT-GPCR construct library, NanoBRET)
The assay can be described thus: NanoBRET screen HiBiT-OPRL1 in HEK293. On the procedure:
(§1) Each tracer candidate was screened across the entire library of HiBiT-GPCR constructs using NanoBRET as the detection modality. As depicted in Figure 4A, the specificity of interactions was evaluated through decrease in BRET due to competitive displacement of a bound tracer by excess parental compound. Each tracer was analyzed for binding to each HiBiT-GPCR fusion in the absence and in the presence of competing parental compound. Briefly, HEK293 cells were transfected with HiBiT-GPCR constructs diluted into promoterless DNA to reduce expression and maximize translocation to the cell surface. Each tracer candidate was then screened at concentrations of 1 μM and 0.1 μM across cells expressing these fusions. Cells were treated for 1.5 h with tracer either alone or in the presence of 20 μM competing parental compound (i.e., control). BRET was measured upon addition of purified LgBiT and subsequent complementation with HiBiT genetically fused to a GPCR. The specificity of interactions was assessed through a decrease in BRET signal due to competitive displacement of the bound tracer. To further gauge the robustness of these interactions, the fold response over the control (i.e., BRETtracer/BRETcontrol) was calculated. We chose a 1.5-fold response, which translates to ≥7-fold signal over noise as the minimal threshold required to score an interaction as positive. […]. Below we highlight the screening results obtained for our exemplary fluorescent tracers based on Clozapine, Amitriptyline and AZD1283.
(§2) HiBiT-GPCR DNA constructs were diluted in 10 mM Tris pH 8 to a final concentration of 0.01 μg/μL, arrayed in 96-well plates and stored at −20 °C. For transfection, HEK293 cells were suspended in Opti-MEM (without phenol red) supplemented with 2% fetal bovine serum (Seradigm) and 100 units/mL penicillin–streptomycin (Gibco) at a final concentration of 220,000 cells/mL and dispensed into white 96-well plates at 90 μL/well. Subsequent transfections and screens were carried using an Agilent Bravo Automated Liquid Handling Platform. First, the 96-well HiBiT DNA arrays were diluted 25-fold in Opti-MEM (without serum or phenol red) to a final concentration of 0.0004 μg/μL and 20 μL of the diluted DNAs were transferred into new 96-well plates. Next, promoterless carrier DNA (1 μg/μL) was diluted 25-fold (0.04 μg/μL) and then dispensed into the diluted arrays at 20 μL/well. Following brief mixing, Viafect transfection reagent (Promega) diluted 16-fold into Opti-MEM was dispensed into the plates at 40 μL/well. After mixing by pipetting, plates were incubated for 10 min on the pipetting station deck. The DNA-transfection reagent complexes were then added to plates containing cells. To facilitate the screen, 10 μL of DNA-transfection reagent complexes were added in duplicates to the top 4 and bottom 4 rows, resulting in two identical 48-well arrays per plate. Plates with transfected cells were incubated for 18–20 h at 37 °C/5% CO2. A screen of each tracer across the entire library using two different concentrations requires duplicate plates of transfected cells. Depending on the number of tracers being screened, transfections can be scaled up using the same ratios. The next day, for each tracer, four 20× screening solutions in tracer dilution buffer (Promega) were prepared: two duplicates at final concentration of 20 μM and two duplicates at a final concentration of 2 μM. A competing unmodified compound was added to one of each duplicate at a final concentration of 400 μM. The four resulting solutions were diluted 4-fold in Opti-MEM without serum or phenol red to generate 5× solutions (5 µM and 0.5 µM tracer +/− 100 μM competing compound). To screen the library, a BioTek MultiFlo FX liquid dispenser was used to dispense 22.5 µL of tracer solution to the top 4 rows and 22.5 µL tracer + competing compound solution to the 4 bottom rows. Plates were briefly mixed on an orbital shaker and incubated for 1.5 h at room temperature. […]

Assay [2] addresses T2, ADRB1 (Homo sapiens, UniProt P08588).
T2 construct: purchased Promega (in-house HiBiT-GPCR construct library, NanoBRET)
As to the kind of experiment: NanoBRET screen HiBiT-ADRB1 in HEK293.

The target of assay [3] is T3, RXFP3 (Homo sapiens, UniProt Q9NSD7).
T3 construct: purchased Promega (in-house HiBiT-GPCR construct library, NanoBRET)
T3 sequence (Q9NSD7 1-469): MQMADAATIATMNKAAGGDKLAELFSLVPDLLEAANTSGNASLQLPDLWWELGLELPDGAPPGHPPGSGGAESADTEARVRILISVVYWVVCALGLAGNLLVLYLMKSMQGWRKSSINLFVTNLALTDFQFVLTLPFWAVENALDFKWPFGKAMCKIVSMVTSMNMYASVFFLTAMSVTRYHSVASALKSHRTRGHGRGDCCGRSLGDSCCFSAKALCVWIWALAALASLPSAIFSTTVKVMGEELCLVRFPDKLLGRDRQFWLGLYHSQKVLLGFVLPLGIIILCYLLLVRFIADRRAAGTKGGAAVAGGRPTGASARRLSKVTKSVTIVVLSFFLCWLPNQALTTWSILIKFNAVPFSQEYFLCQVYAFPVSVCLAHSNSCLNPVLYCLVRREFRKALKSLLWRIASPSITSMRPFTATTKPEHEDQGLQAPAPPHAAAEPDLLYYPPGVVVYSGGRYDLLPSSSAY
The assay can be described thus: NanoBRET screen HiBiT-RXFP3 in HEK293. On the procedure:
as §1, §2
(In BRET a luciferase serves as donor, and the signal depends on an acceptor being close.)

Assay [4] concerns the target T4, SSTR2 (Homo sapiens, UniProt P30874).
T4 construct: purchased Promega (in-house HiBiT-GPCR construct library, NanoBRET)
As to the kind of experiment: NanoBRET screen HiBiT-SSTR2 in HEK293. As to the method: as §1, §2

Assay [5] addresses T5, SSTR5 (Homo sapiens, UniProt P35346).
T5 construct: purchased Promega (in-house HiBiT-GPCR construct library, NanoBRET)
As to the kind of experiment: NanoBRET screen HiBiT-SSTR5 in HEK293. As to the method:
as §1, §2

Assay [6] concerns the target T6, NMUR2 (Homo sapiens, UniProt Q9GZQ4).
T6 construct: purchased Promega (in-house HiBiT-GPCR construct library, NanoBRET)
As to the kind of experiment: NanoBRET screen HiBiT-NMUR2 in HEK293. As to the method: as §1, §2

Assay [7] has as its target T7, PTGDR2 (Homo sapiens, UniProt Q9Y5Y4).
T7 construct: purchased Promega (in-house HiBiT-GPCR construct library, NanoBRET)
T7 sequence (Q9Y5Y4 1-395): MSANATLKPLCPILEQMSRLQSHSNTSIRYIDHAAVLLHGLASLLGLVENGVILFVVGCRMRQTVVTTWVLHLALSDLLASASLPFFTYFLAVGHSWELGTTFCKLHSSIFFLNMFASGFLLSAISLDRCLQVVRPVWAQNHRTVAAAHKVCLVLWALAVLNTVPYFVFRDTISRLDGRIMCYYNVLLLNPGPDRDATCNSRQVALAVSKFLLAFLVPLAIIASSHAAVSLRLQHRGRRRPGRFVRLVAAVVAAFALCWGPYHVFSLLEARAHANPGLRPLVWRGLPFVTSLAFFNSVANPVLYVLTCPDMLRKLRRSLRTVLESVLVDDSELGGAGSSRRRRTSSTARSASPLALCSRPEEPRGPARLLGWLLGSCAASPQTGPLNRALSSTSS
The assay can be described thus: NanoBRET screen HiBiT-PTGDR2 in HEK293. The note with it: PTGDR2. On the procedure:
as §1, §2

T1 sequence (P41146 whole entry): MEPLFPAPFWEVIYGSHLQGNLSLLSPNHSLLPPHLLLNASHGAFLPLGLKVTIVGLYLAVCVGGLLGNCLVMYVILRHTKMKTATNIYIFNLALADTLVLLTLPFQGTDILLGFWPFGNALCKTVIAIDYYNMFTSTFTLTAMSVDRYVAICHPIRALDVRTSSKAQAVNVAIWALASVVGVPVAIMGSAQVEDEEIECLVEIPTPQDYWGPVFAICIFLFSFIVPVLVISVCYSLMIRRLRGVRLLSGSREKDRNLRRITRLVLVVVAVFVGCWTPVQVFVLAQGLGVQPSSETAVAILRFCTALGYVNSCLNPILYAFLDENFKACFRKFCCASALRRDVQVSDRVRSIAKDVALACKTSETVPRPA
T4 sequence (P30874 whole entry): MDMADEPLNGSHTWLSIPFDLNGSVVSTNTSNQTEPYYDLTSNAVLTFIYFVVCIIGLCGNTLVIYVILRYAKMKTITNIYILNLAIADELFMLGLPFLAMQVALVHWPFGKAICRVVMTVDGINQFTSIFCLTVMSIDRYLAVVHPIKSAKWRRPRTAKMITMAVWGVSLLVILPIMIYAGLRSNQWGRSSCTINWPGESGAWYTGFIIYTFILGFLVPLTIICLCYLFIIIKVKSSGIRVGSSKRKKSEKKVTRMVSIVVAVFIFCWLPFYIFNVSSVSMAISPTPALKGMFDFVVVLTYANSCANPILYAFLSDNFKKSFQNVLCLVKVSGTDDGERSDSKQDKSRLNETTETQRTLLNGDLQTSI
T6 sequence (Q9GZQ4 whole entry): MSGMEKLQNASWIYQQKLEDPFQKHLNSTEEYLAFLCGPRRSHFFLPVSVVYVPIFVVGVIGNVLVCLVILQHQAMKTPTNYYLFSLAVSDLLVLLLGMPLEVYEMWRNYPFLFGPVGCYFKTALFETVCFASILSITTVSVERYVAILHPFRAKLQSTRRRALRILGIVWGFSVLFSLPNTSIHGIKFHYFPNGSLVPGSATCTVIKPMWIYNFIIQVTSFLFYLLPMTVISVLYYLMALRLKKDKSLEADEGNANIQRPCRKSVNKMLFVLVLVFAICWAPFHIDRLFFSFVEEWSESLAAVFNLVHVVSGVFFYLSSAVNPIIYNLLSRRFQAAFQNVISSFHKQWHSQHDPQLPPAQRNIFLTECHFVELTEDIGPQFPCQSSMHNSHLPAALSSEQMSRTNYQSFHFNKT
T2 sequence (P08588 whole entry): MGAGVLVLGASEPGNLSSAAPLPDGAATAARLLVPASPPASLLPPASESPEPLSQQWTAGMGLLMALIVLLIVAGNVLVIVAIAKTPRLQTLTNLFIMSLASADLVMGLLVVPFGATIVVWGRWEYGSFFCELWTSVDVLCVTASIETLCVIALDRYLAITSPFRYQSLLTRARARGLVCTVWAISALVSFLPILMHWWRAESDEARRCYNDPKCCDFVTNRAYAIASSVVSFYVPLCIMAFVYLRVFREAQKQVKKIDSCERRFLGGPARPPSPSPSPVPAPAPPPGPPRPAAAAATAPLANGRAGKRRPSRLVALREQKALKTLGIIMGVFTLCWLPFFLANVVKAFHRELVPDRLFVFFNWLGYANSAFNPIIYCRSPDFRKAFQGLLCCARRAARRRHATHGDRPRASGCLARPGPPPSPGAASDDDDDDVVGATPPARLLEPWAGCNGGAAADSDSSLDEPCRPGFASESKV
T5 sequence (P35346 whole entry): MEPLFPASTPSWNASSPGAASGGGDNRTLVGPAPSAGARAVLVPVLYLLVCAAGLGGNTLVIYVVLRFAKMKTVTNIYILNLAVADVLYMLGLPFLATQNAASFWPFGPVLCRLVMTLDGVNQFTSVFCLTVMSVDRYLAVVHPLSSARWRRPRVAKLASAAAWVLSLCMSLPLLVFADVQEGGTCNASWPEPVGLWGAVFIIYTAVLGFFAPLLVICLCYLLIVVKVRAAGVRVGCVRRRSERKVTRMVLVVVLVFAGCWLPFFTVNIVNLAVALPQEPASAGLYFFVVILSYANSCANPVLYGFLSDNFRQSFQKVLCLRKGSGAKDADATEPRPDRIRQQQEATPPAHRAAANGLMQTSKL

On to `O=C(CCc1ccc2n1[B-](F)(F)[N+]1=C(c3ccc[nH]3)C=CC1=C2)NCc1ccc(C(=O)NCCOCCC(=O)N[C@@H]2CC[C@@]3(O)[C@H]4Cc5ccc(O)c6c5[C@@]3(CCN4CC3CC3)[C@H]2O6)cc1` [Naltrexone-3-NB590], for which the “NanoBRET Fold Response” value is given as 1.54 in assay [1] (OPRL1, tracer 0.1μM); 0.99 in assay [1] (OPRL1, tracer 1μM); 1.34 in assay [2] (ADRB1, tracer 0.1μM); 0.83 in assay [2] (ADRB1, tracer 1μM); 0.98 in assay [3] (RXFP3, tracer 0.1μM); 1.05 in assay [3] (RXFP3, tracer 1μM). Moreover, the “NanoBRET Fold Response” value turned out to be 1.06 in assay [4] (SSTR2, tracer 0.1μM); 0.93 in assay [4] (SSTR2, tracer 1μM); 0.96 in assay [5] (SSTR5, tracer 0.1μM); 0.96 in assay [5] (SSTR5, tracer 1μM); 0.78 in assay [6] (NMUR2, tracer 0.1μM); 0.84 in assay [6] (NMUR2, tracer 1μM). Besides, the “NanoBRET Fold Response” value is on record as 0.98 in assay [7] (tracer 0.1μM) and 1.00 in assay [7] (tracer 1μM).

As to `COc1ccccc1N1CCN(CCCCN2C(=O)c3ccc(CNC(=O)CCOCCNC(=O)c4ccc(CNC(=O)CCc5ccc6n5[B-](F)(F)[N+]5=C(c7ccc[nH]7)C=CC5=C6)cc4)cc3C2=O)CC1` [NAN-190-3-NB590], the “NanoBRET Fold Response” value in assay [1] (OPRL1, tracer 0.1μM) stood at 1.08; in assay [1] (OPRL1, tracer 1μM), 1.41; in assay [3] (RXFP3, tracer 0.1μM), 1.08; in assay [3] (RXFP3, tracer 1μM) it was 0.95; in assay [4] (SSTR2, tracer 0.1μM), 1.00; in assay [4] (SSTR2, tracer 1μM), 1.10. In addition, the “NanoBRET Fold Response” value was determined as 1.02 in assay [5] (SSTR5, tracer 0.1μM); 1.03 in assay [5] (SSTR5, tracer 1μM); 1.04 in assay [6] (NMUR2, tracer 0.1μM); 0.75 in assay [6] (NMUR2, tracer 1μM); 0.87 in assay [7] (tracer 0.1μM); 0.85 in assay [7] (tracer 1μM).

As to `CN(CCC=C1c2ccccc2CCc2ccccc21)C(=O)CCOCCOCCOCCOCCNC(=O)CCc1ccc2n1[B-](F)(F)[N+]1=C(c3ccc[nH]3)C=CC1=C2` [Amitriptyline-e-2-NB590], the “NanoBRET Fold Response” value is 1.10 in assay [1] (tracer at 1μM) and 0.95 in assay [2] (tracer at 1μM).

Regarding `O=C(CCc1ccc2n1[B-](F)(F)[N+]1=C(c3ccc[nH]3)C=CC1=C2)NCc1ccc(C(=O)NCCOCCOCCNCC(O)COc2cccc3ccccc23)cc1` (stereo not shown) [Propranolol-3-NB590], the “NanoBRET Fold Response” value in assay [1] (OPRL1, 0.1μM) worked out at 0.96; in assay [1] (OPRL1, 1μM), 1.01; in assay [3] (RXFP3, 0.1μM), 1.14; in assay [3] (RXFP3, 1μM), 1.08; in assay [4] (SSTR2, 0.1μM) it was 1.04; in assay [4] (SSTR2, 1μM), 1.01. Besides, the “NanoBRET Fold Response” value stood at 1.01 in assay [5] (SSTR5, 0.1μM); 1.02 in assay [5] (SSTR5, 1μM); 1.06 in assay [6] (NMUR2, 0.1μM); 1.08 in assay [6] (NMUR2, 1μM); 0.96 in assay [7] (0.1μM); 1.06 in assay [7] (1μM).

With `N#CN/C(=N\CCNC(=O)c1ccc(N)cc1)NCCCOc1cccc(CN2CCCCC2)c1` [Aminopotentidine (unmodified)], the “NanoBRET Fold Response” value in assay [2] (ADRB1, other tracers/Aminopotentidine (unmodified), 0.1μM) amounted to 1.01; in assay [2] (ADRB1, other tracers/Aminopotentidine (unmodified), 1μM), 1.07.

Take `COc1ccccc1N1CCN(CCCCN2C(=O)c3ccc(CNC(=O)CCOCCOCCOCCOCCNC(=O)CCc4ccc5n4[B-](F)(F)[N+]4=C(c6ccc[nH]6)C=CC4=C5)cc3C2=O)CC1` [NAN-190-2-NB590]: the “NanoBRET Fold Response” value came out at 0.97 in assay [1] (OPRL1, tracer 0.1μM); 1.02 in assay [3] (RXFP3, tracer 0.1μM); 0.99 in assay [4] (SSTR2, tracer 0.1μM); 1.03 in assay [4] (SSTR2, tracer 1μM); 0.98 in assay [5] (SSTR5, tracer 0.1μM); 1.04 in assay [5] (SSTR5, tracer 1μM). In assay [7] (tracer 1μM), the “NanoBRET Fold Response” value worked out at 1.02.

On to `CN(C)CCC=C1c2ccccc2CCc2ccc(C(=O)NCCNC(=O)CCOCCOCCOCCOCCNC(=O)CCc3ccc4n3[B-](F)(F)[N+]3=C(c5ccc[nH]5)C=CC3=C4)cc21` [Amitriptyline-a-2-NB590], for which the “NanoBRET Fold Response” value in assay [1] (tracer at 0.1μM) was 1.01; in assay [1] (tracer at 1μM) it was 0.95; in assay [2] (tracer at 0.1μM) it was 1.05; in assay [2] (tracer at 1μM) it was 1.18; in assay [3] (tracer at 0.1μM) it was 0.97; in assay [3] (tracer at 1μM) it was 0.99. For the same compound, the “NanoBRET Fold Response” value in assay [4] (tracer at 0.1μM) came to 1.03; in assay [4] (tracer at 1μM), 1.03; in assay [5] (tracer at 0.1μM), 1.00; in assay [5] (tracer at 1μM), 1.05; in assay [6] (tracer at 0.1μM), 1.00; in assay [6] (tracer at 1μM) it was 1.02.
